Laboratory results published in patent US9533983B2, “Antiplatelet agent” (Mitsubishi Tanabe Pharma Corporation, priority 2009, dated 2017).

Columns and labels:
[1] = test system: Collagen-Induced Platelet Aggregation; test: Platelet aggregation inhibitory activity: collagen-induced platelet aggregation in platelet rich plasma; type: cell-based; settings: Cavia porcellus, guinea pig PRP
Experimental: (§1) A blood of a guinea pig was sampled by using a 1/10 volume of a 3.8% sodium citrate as a platelet aggregation inhibitor, and a platelet rich plasma (PRP) was separated by centrifuging the blood sample at 1100 rpm for 10 min. After fractionating the PRP in the upper layer, the lower layer was centrifuged at 3000 rpm for 10 min to fractionate the platelet poor plasma (PPP). To 100 μL of PRP, a 1 μL solution of each compound was added, and after still standing at 37° C. for 1 min, the mixture was stirred at 37° C. for 1 min by a stirrer. Then, 11 μL of collagen, ristocetin, or ADP was added thereto to induce the platelet aggregation. The platelet aggregation ability was measured by using the mCM hematolaser 313M (L-M-S Inc.). Based on the assumption that a light transmittance of PPP corresponds to a 100% coagulation value, an aggregation rate at each concentration of the compound was determined, then, an IC50 value was calculated therefrom.
[Platelet Aggregation Inhibitory Activities: Collagen-Induced Platelet Aggregation]

[2] = test system: Ristocetin-Induced Platelet Aggregation; test: Platelet aggregation inhibitory activity: ristocetin-induced platelet aggregation in platelet rich plasma; type: cell-based; settings: Cavia porcellus, guinea pig PRP
Experimental: as §1
[Platelet Aggregation Inhibitory Activities: Ristocetin-Induced Platelet Aggregation]

Row | IC50 [1] [nM] | IC50 [2] [nM] | SMILES
1 | 44 | – | COc1ccc(-n2c(-c3ccc(Br)cn3)nc3cc(C(F)(F)F)ccc32)nn1 [Example 35, 2-(5-bromopyridin-2-yl)-1-(6-methoxypyridazin-3-yl)-5-(trifluoromethyl)-1H-benzimidazole]
2 | 2380 | – | COc1ccc(-n2c(-c3ccccn3)nc3c(C(F)(F)F)cccc32)cn1 [Example 37]
3 | 15000 | – | COc1ccc(-n2c(-c3ccccn3)nc3cccnc32)cn1 [Example 49]
4 | 240 | – | Cc1ccc(-n2c(-c3ccccn3)nc3cc(C(F)(F)F)cnc32)cn1 [Example 118, 3-(6-methylpyridin-3-yl)-2-pyridin-2-yl-6-(trifluoromethyl)-3H-imidazo[4,5-b]pyridine]
5 | 81 | – | COc1cnc(-n2c(-c3cscn3)nc3cc(C(F)(F)F)cnc32)cn1 [Example 148, 3-(5-methoxypyrazine-2-yl)-2-(1,3-thiazol-4-yl)-6-(trifluoromethyl)-3H-imidazo[4,5-b]pyridine]
6 | 230 | – | CNc1ccc(-n2c(-c3ccc(F)cn3)nc3cc(C(F)(F)F)cnc32)cn1 [Example 149, 5-[2-(5-fluoropyridin-2-yl)-6-(trifluoromethyl)-3H-imidazo[4,5-b]pyridin-3-yl]-N-methylpyridin-2-amine]
7 | 291 | – | COc1cnc(-n2c(-c3ccn(C)n3)nc3cc(C(F)(F)F)cnc32)cn1 [Example 153, 3-(5-methoxypyrazine-2-yl)-2-(1-methyl-1H-pyrazol-3-yl)-6-(trifluoromethyl)-3H-imidazo[4,5-b]pyridine]
8 | 76 | – | COc1ccc(-n2c(-c3ccn(C)n3)nc3cc(OC(F)(F)F)ccc32)nn1 [Example 156, 1-(6-methoxypyridazin-3-yl)-2-(1-methyl-1H-pyrazol-3-yl)-5-(trifluoromethoxy)-1H-benzimidazole]
9 | 74 | – | COc1cnc(-n2c(-c3cnc(C#N)cn3)nc3cc(C(F)(F)F)cnc32)cn1 [Example 157]
10 | 268 | – | COc1cnc(-n2c(-c3ccccn3)nc3cc(C(F)(F)F)ccc32)cn1 [Example 161, 1-(5-methoxypyrazine-2-yl)-2-pyridin-2-yl-5-(trifluoromethyl)-1H-benzimidazole]
11 | 125 | – | COc1ccc(-n2c(-c3cn(C)nn3)nc3cc(C(F)(F)F)ccc32)nn1 [Example 163, 1-(6-methoxypyridazin-3-yl)-2-(1-methyl-1H-1,2,3-triazol-4-yl)-5-(trifluoromethyl)-1H-benzimidazole]
12 | 161 | – | COc1cnc(-n2c(-c3cn(C)nn3)nc3cc(C(F)(F)F)cnc32)cn1 [Example 164, 3-(5-methoxypyrazine-2-yl)-2-(1-methyl-1H-1,2,3-triazol-4-yl)-6-(trifluoromethyl)-3H-imidazo[4,5-b]pyridine]
13 | 203 | – | COc1cnc(-n2c(-c3cnn(C)c3)nc3cc(C(F)(F)F)cnc32)cn1 [Example 165, 3-(5-methoxypyrazine-2-yl)-2-(1-methyl-1H-pyrazol-4-yl)-6-(trifluoromethyl)-3H-imidazo[4,5-b]pyridine]
14 | 316 | – | COc1ccc(-n2c(-c3cnn(C)c3)nc3cc(OC(F)(F)F)ccc32)nn1 [Example 166, 1-(6-methoxypyridazin-3-yl)-2-(1-methyl-1H-pyrazol-4-yl)-5-(trifluoromethoxy)-1H-benzimidazole]
15 | 259 | – | COc1ccc(-n2c(-c3cc(C)on3)nc3cc(OC(F)(F)F)ccc32)nn1 [Example 168, 1-(6-methoxypyridazin-3-yl)-2-(5-methylisoxazol-3-yl)-5-(trifluoromethoxy)-1H-benzimidazole]
16 | 279 | – | CCOc1cnc2c(c1)nc(-c1ccccn1)n2-c1ccc(OC)nc1 [Example 170, 6-ethoxy-3-(6-methoxypyridin-3-yl)-2-pyridin-2-yl-3H-imidazo[4,5-b]pyridine]
17 | 91 | – | COc1ccc(-n2c(-c3ccccn3)nc3cc(OCC4CC4)cnc32)cn1 [Example 171, 6-(cyclopropylmethoxy)-3-(6-methoxypyridin-3-yl)-2-pyridin-2-yl-3H-imidazo[4,5-b]pyridine]
18 | 275 | – | CCc1nc(-c2nc3cc(C(F)(F)F)cnc3n2-c2ccc(OC)nc2)co1 [Example 172, 2-(2-ethyl-1,3-oxazol-4-yl)-3-(6-methoxypyridin-3-yl)-6-(trifluoromethyl)-3H-imidazo[4,5-b]pyridine]
19 | 40 | – | COc1cnc(-n2c(-c3ccccn3)cc3cc(C(F)(F)F)cnc32)cn1 [Example 187, 1-(5-methoxypyrazine-2-yl)-2-pyridin-2-yl-5-(trifluoromethyl)-1H-pyrrolo[2,3-b]pyridine]
20 | 30 | – | COc1ccc(-c2c3ccc(C(F)(F)F)cc3nn2-c2ccccn2)cn1 [Example 188, 3-(6-methoxypyridin-3-yl)-2-pyridin-2-yl-6-(trifluoromethyl)-2H-indazole]
21 | 218 | – | COc1ccc(-c2c(-c3ccccn3)nc3cc(C(F)(F)F)ccn23)cn1 [Example 190, 3-(6-methoxypyridin-3-yl)-2-pyridin-2-yl-7-(trifluoromethyl)imidazo[1,2-a]pyridine]
22 | 790 | – | COc1ccc(-c2c(-c3ccc(F)cn3)nc3cc(C(F)(F)F)ccn23)cn1 [Example 191, 2-(5-fluoropyridin-2-yl)-3-(6-methoxypyridin-3-yl)-7-(trifluoromethyl)imidazo[1,2-a]pyridine]

The remaining lines, values behind:

Row | SMILES | IC50 [1] [nM] | IC50 [2] [nM]
23 | COc1ccc(-n2c(-c3cccc(F)n3)nc3cc(C(F)(F)F)ccc32)nn1 [Example 2, 2-(6-fluoropyridin-2-yl)-1-(6-methoxypyridazin-3-yl)-5-(trifluoromethyl)-1H-benzimidazole] | 180 | 92
24 | CNc1ccc(-n2c(-c3ccccn3)nc3cc(C(F)(F)F)cnc32)cn1 [Example 5, N-methyl-5-[2-pyridin-2-yl-6-(trifluoromethyl)-3H-imidazo[4,5-b]pyridin-3-yl]pyridin-2-amine] | 89 | –
25 | CN(C)c1ccc(-n2c(-c3ccccn3)nc3cc(C(F)(F)F)cnc32)cn1 [Example 6, N,N-dimethyl-5-[2-pyridin-2-yl-6-(trifluoromethyl)-3H-imidazo[4,5-b]pyridin-3-yl]pyridin-2-amine] | 257 | –
26 | COc1ccc(-n2c(-c3cnc(C#N)cn3)nc3cc(C(F)(F)F)cnc32)cn1 [Example 8, 5-[3-(6-methoxypyridin-3-yl)-6-(trifluoromethyl)-3H-imidazo[4,5-b]pyridin-2-yl]pyrazine-2-carbonitrile] | 150 | 95
27 | COc1ccc(-n2c(-c3ccc(OC)nn3)nc3cc(C(F)(F)F)ccc32)cn1 [Example 9, 2-(6-methoxypyridazin-3-yl)-1-(6-methoxypyridin-3-yl)-5-(trifluoromethyl)-1H-benzimidazole] | 150 | 140
28 | COc1ccc(-n2c(-c3ccc[nH]3)nc3cc(C(F)(F)F)cnc32)cn1 [Example 10, 3-(6-methoxypyridin-3-yl)-2-(1H-pyrrol-2-yl)-6-(trifluoromethyl)-3H-imidazo[4,5-b]pyridine] | 18 | 15
29 | COc1ccc(-n2c(-c3c[nH]cn3)nc3cc(C(F)(F)F)cnc32)cn1 [Example 11, 2-(1H-Imidazol-4-yl)-3-(6-methoxypyridin-3-yl)-6-(trifluoromethyl)-3H-imidazo[4,5-b]pyridine] | 130 | 57
30 | FC(F)(F)c1ccc2c(c1)nc(-c1ccccn1)n2-c1ccccn1 [Example 12, 1,2-Dipyridin-2-yl-5-(trifluoromethyl)-1H-benzimidazole] | 230 | 190
31 | COc1ccc(-n2c(-c3cnn(C)c3)nc3cc(C(F)(F)F)ccc32)nn1 [Example 15, 1-(6-methoxypyridazin-3-yl)-2-(1-methyl-1H-pyrazol-4-yl)-5-(trifluoromethyl)-1H-benzimidazole] | 280 | 150
32 | CCc1ccc2c(c1)nc(-c1ccccn1)n2-c1ccc(OC)nc1 [Example 17, 5-ethyl-1-(6-methoxypyridin-3-yl)-2-pyridin-2-yl-1H-benzimidazole] | 110 | 160
33 | COc1ccc(-n2c(-c3ccccc3)nc3cc(C(F)(F)F)ccc32)cn1 [Example 18, 1-(6-methoxypyridin-3-yl)-2-phenyl-5-(trifluoromethyl)-1H-benzimidazole] | 490 | 120
34 | COc1ccc(-n2c(-c3ccccn3)nc3ccc(C(F)(F)F)cc32)cn1 [Example 19] | 10400 | –
35 | COc1ccc(-n2c(-c3ccc(Br)cn3)nc3cc(C(F)(F)F)ccc32)cn1 [Example 20, 2-(5-bromopyridin-2-yl)-1-(6-methoxypyridin-3-yl)-5-(trifluoromethyl)-1H-benzimidazole] | 62 | 210
36 | COc1ccc(-n2c(-c3ccc(F)cn3)nc3cc(C(F)(F)F)ccc32)cn1 [Example 21, 2-(5-fluoropyridin-2-yl)-1-(6-methoxypyridin-3-yl)-5-(trifluoromethyl)-1H-benzimidazole] | 130 | 390
37 | COc1ccc(-n2c(-c3ccccn3)nc3ccccc32)cn1 [Example 23] | 4470 | –
38 | COc1ccc(-n2c(-c3ccccn3)nc3cc(C4CC4)ccc32)cn1 [Example 27, 5-cyclopropyl-1-(6-methoxypyridin-3-yl)-2-pyridin-2-yl-1H-benzimidazole] | 190 | 170
39 | COc1ccc(-n2c(-c3ccccn3)nc3cc(OCC4CC4)ccc32)cn1 [Example 31, 5-(cyclopropylmethoxy)-1-(6-methoxypyridin-3-yl)-2-pyridin-2-yl-1H-benzimidazole] | 250 | 870
